Data published in US9493466B2, “Treatment of cancer with TOR kinase inhibitors” (Signal Pharmaceuticals, LLC, priority 2011, dated 2016).

Columns and labels:
Assay in all cases: Apoptosis assay for NHL lines (Caspase 3/7-Glo)
Type in all cases: cell-based
SU-DHL-16 = settings: SU-DHL-16, NHL DLBCL, 24 hours, n = 1
Description: (§1) Apoptosis Assay for NHL Lines. Prior to testing, cells were grown and expanded in culture flasks to provide sufficient amounts of starting material. Cells were then diluted to their desired densities and added directly to compound-spotted 384-well plates. Cells were allowed to grow for 24 hours in 5% CO2 at 37° C. The apoptotic response was assessed by quantifying the activities of caspase 3 and caspase 7 (Caspase 3/7-Glo) in treated cells and control cells at the 24-hour time point. All data was normalized and represented as a value relative to the DMSO-treated cells. Results were then expressed as CalX, which is the minimum compound concentration required to double the levels of caspase 3/7 relative to those of the DMSO-treated cells during their treatment period.

DB = settings: NHL DLBCL, 24 hours, n = 1
Description: as §1

U-2932 = settings: U-2932, NHL DLBCL, 24 hours, n = 1
Description: as §1

WSU-NHL = settings: NHL FL, 24 hours, n = 1
Description: as §1

KASUMI-1 = settings: KASUMI-1, Leukemia M-AML, 24 hours, n = 1
Description: as §1

WSU-DLCL2 = settings: WSU-DLCL2, NHL DLBCL, 24 hours, n = 1
Description: as §1

HL-60 = settings: HL-60, Leukemia M-AML, 24 hours, n = 1
Description: as §1

KARPAS-422 = settings: KARPAS-422, NHL DLBCL, 24 hours, n = 1
Description: as §1

RC-K8 = settings: RC-K8, NHL DLBCL, 24 hours, n = 1
Description: as §1

Granta-519 = settings: Granta-519, NHL MCL, 24 hours, n = 1
Description: as §1

Mino = settings: NHL MCL, 24 hours, n = 1
Description: as §1

SU-DHL-10 = settings: SU-DHL-10, NHL DLBCL, 24 hours, n = 1
Description: as §1

MOLM-13 = settings: MOLM-13, Leukemia M-AML, 24 hours, n = 1
Description: as §1

OCI-LY-7 = settings: OCI-LY-7, NHL DLBCL, 24 hours, n = 1
Description: as §1

NU-DHL-1 = settings: NU-DHL-1, NHL DLBCL, 24 hours, n = 1
Description: as §1

SU-DHL-5 = settings: SU-DHL-5, NHL DLBCL, 24 hours, n = 1
Description: as §1

OCI-LY-10 = settings: OCI-LY-10, NHL DLBCL, 24 hours, n = 1
Description: as §1

KG-1 = settings: KG-1, Leukemia M-AML, 24 hours, n = 1
Description: as §1

Pfeiffer = settings: NHL DLBCL, 24 hours, n = 1
Description: as §1

HT = settings: NHL DLBCL, 24 hours, n = 1
Description: as §1

Farage = settings: NHL DLBCL, 24 hours, n = 1
Description: as §1

RIVA = settings: NHL DLBCL, 24 hours, n = 1
Description: as §1

SU-DHL-1 = settings: SU-DHL-1, ALCL T-cell, 24 hours, n = 1
Description: as §1

SC-1 = settings: SC-1, NHL FL, 24 hours, n = 1
Description: as §1

SU-DHL-4 = settings: SU-DHL-4, NHL DLBCL, 24 hours, n = 1
Description: as §1

OCI-LY-19 = settings: OCI-LY-19, NHL DLBCL, 24 hours, n = 1
Description: as §1

JVM-2 = settings: JVM-2, NHL MCL, 24 hours, n = 1
Description: as §1

OCI-LY-3 = settings: OCI-LY-3, NHL DLBCL, 24 hours, n = 1
Description: as §1

WSU-FSCCL = settings: NHL FL, 24 hours, n = 1
Description: as §1

KARPAS-1106P = settings: NHL DLBCL, 24 hours, n = 1
Description: as §1

JVM-13 = settings: JVM-13, NHL MCL, 24 hours, n = 1
Description: as §1

DOHH-2 = settings: DOHH-2, NHL FL, 24 hours, n = 1
Description: as §1

CO[C@H]1CC[C@H](N2C(=O)CNc3ncc(-c4ccc(C(C)(C)O)nc4)nc32)CC1 [Compound 1, 7-(6-(2-hydroxypropan-2-yl)pyridin-3-yl)-1-((1r,4r)-4-methoxycyclohexyl)-3,4-dihydropyrazino-[2,3-b]pyrazin-2(1H)-one]
CalX (minimum concentration to double caspase 3/7) (SU-DHL-16): 0.11
Apoptotic (DB): N/Y
CalX (minimum concentration to double caspase 3/7) (DB): 5.44
CalX (minimum concentration to double caspase 3/7) (U-2932): 2.04
CalX (minimum concentration to double caspase 3/7) (WSU-NHL): 0.16
Apoptotic (KASUMI-1): N/Y
CalX (minimum concentration to double caspase 3/7) (KASUMI-1): 6.52
CalX (minimum concentration to double caspase 3/7) (WSU-DLCL2): 0.19
CalX (minimum concentration to double caspase 3/7) (HL-60): 10
Apoptotic (KARPAS-422): N/Y
CalX (minimum concentration to double caspase 3/7) (KARPAS-422): 5.16
Apoptotic (RC-K8): N/Y
CalX (minimum concentration to double caspase 3/7) (RC-K8): 6.51
CalX (minimum concentration to double caspase 3/7) (Granta-519): 10
CalX (minimum concentration to double caspase 3/7) (Mino): 0.53
CalX (minimum concentration to double caspase 3/7) (SU-DHL-10): 0.54
Apoptotic (MOLM-13): N/Y
CalX (minimum concentration to double caspase 3/7) (MOLM-13): 7.24
CalX (minimum concentration to double caspase 3/7) (OCI-LY-7): 0.07
CalX (minimum concentration to double caspase 3/7) (NU-DHL-1): 0.41
CalX (minimum concentration to double caspase 3/7) (SU-DHL-5): 0.59
CalX (minimum concentration to double caspase 3/7) (OCI-LY-10): 0.7
CalX (minimum concentration to double caspase 3/7) (KG-1): 10
CalX (minimum concentration to double caspase 3/7) (Pfeiffer): 10
Apoptotic (HT): N/Y
CalX (minimum concentration to double caspase 3/7) (HT): 5.62
CalX (minimum concentration to double caspase 3/7) (Farage): 0.47
Apoptotic (RIVA): N/Y
CalX (minimum concentration to double caspase 3/7) (RIVA): 3.84
CalX (minimum concentration to double caspase 3/7) (SU-DHL-1): 10
CalX (minimum concentration to double caspase 3/7) (SC-1): 10
Apoptotic (SU-DHL-4): N/Y
CalX (minimum concentration to double caspase 3/7) (SU-DHL-4): 5.15
CalX (minimum concentration to double caspase 3/7) (OCI-LY-19): 1.13
Apoptotic (JVM-2): N/Y
CalX (minimum concentration to double caspase 3/7) (JVM-2): 3.2
CalX (minimum concentration to double caspase 3/7) (OCI-LY-3): 0.67
CalX (minimum concentration to double caspase 3/7) (WSU-FSCCL): 0.16
CalX (minimum concentration to double caspase 3/7) (KARPAS-1106P): 0.25
Apoptotic (JVM-13): N/Y
CalX (minimum concentration to double caspase 3/7) (JVM-13): 4.27
CalX (minimum concentration to double caspase 3/7) (DOHH-2): 0.14
